From the supplement of paper PMC10307832

How the values were obtained:
Assay in all cases: relative viability (nuclei count vs DMSO), 5 days (fraction); higher = more cells survive
IPA-3 = compound: C1=CC=C2C(=C1)C=CC(=C2SSC3=C(C=CC4=CC=CC=C43)O)O [IPA-3]
How it was run: (§1)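 Following overnight incubation at 37 °C, lung cancer cell lines in 1536-well plates were pinned with five library-drug doses (not always all listed) in √10 steps on vehicle-anchored plates. The cells then spent 5 days without medium change before a combined fix, permeabilisation and Hoechst stain, 4× imaging and MetaXpress nuclear counts. Viability is the treated-to-vehicle ratio of nuclei, taken as the median across plates. Only plates with control CV below 25% and at least one doubling passed.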

Doramapimod = compound: Cc1ccc(-n2nc(C(C)(C)C)cc2NC(=O)Nc2ccc(OCCN3CCOCC3)c3ccccc23)cc1 [Doramapimod]
How it was run: as §1

RAF265 = compound: Cn1c(Nc2ccc(C(F)(F)F)cc2)nc2cc(Oc3ccnc(-c4ncc(C(F)(F)F)[nH]4)c3)ccc21 [RAF265]
How it was run: as §1

RAF265 + Foretinib = compound: Cn1c(Nc2ccc(C(F)(F)F)cc2)nc2cc(Oc3ccnc(-c4ncc(C(F)(F)F)[nH]4)c3)ccc21 [RAF265] + COc1cc2c(Oc3ccc(NC(=O)C4(C(=O)Nc5ccc(F)cc5)CC4)cc3F)ccnc2cc1OCCCN1CCOCC1 [Foretinib] (partner 0.25 µM)
How it was run: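 For relative viability, nuclei counts in treated wells were divided by those in vehicle wells. Lung cancer cell lines had been pin-tool dosed in 1536-well plates the day after seeding and cultured for 5 days, then fixed and stained in one step (final 0.05% Triton X-100, 1% formaldehyde, 1 ug/ml Hoechst) and imaged at 4×. Doses were one drug alone or a fixed anchor-drug dose plus five library-drug doses (not always all listed) in √10 steps, and values are duplicate-plate medians.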

| Cell Line | relative viability (IPA-3; 0.2 µM) | relative viability (IPA-3; 0.6325 µM) | relative viability (IPA-3; 2 µM) | relative viability (IPA-3; 6.325 µM) | relative viability (IPA-3; 20 µM) | relative viability (Doramapimod; 0.02 µM) | relative viability (Doramapimod; 0.06325 µM) | relative viability (Doramapimod; 0.2 µM) | relative viability (Doramapimod; 0.6325 µM) | relative viability (Doramapimod; 2 µM) | relative viability (RAF265; 0.01 µM) | relative viability (RAF265; 0.03162 µM) | relative viability (RAF265; 0.1 µM) | relative viability (RAF265; 0.3162 µM) | relative viability (RAF265; 1 µM) | relative viability (RAF265 + Foretinib; first compound 0.01 µM) | relative viability (RAF265 + Foretinib; first compound 0.03162 µM) | relative viability (RAF265 + Foretinib; first compound 0.1 µM) | relative viability (RAF265 + Foretinib; first compound 0.3162 µM) | relative viability (RAF265 + Foretinib; first compound 1 µM) |
| --- | --- | --- | --- | --- | --- | --- | --- | --- | --- | --- | --- | --- | --- | --- | --- | --- | --- | --- | --- | --- |
| LK-2 | 1.06 | 1.03 | 0.995 | 1.01 | 1.19 | 0.909 | 0.981 | 0.926 | 0.741 | 0.849 | 0.963 | 1 | 1.09 | 1.07 | 0.714 | 1.07 | 1.13 | 0.952 | 1.05 | 0.862 |
| NCI-H2023 | 1.37 | 0.899 | 1.02 | 1.1 | 1.06 | 0.928 | 0.975 | 0.998 | 1.19 | 0.906 | 0.988 | 0.988 | 1.13 | 0.762 | 0.808 | 0.86 | 0.875 | 0.893 |  | 0.553 |
| NCI-H596 | 0.934 | 0.989 | 0.977 | 1.13 | 1.2 | 1.02 | 1.12 | 0.957 | 0.92 | 0.984 | 1.28 | 0.987 | 1.07 | 1.03 | 0.829 | 0.739 | 0.929 | 0.866 | 0.691 | 0.626 |
| SK-MES-1 | 1.08 | 0.97 | 1.07 | 0.923 | 1.02 | 1.01 | 0.934 | 0.95 | 1.05 | 0.926 | 1.03 | 0.805 | 0.634 | 0.441 | 0.283 | 1.04 | 0.932 | 0.816 | 0.529 | 0.369 |
| NCI-H1793 | 1.14 | 0.768 | 0.884 | 1.09 | 1.04 | 0.894 | 0.843 | 0.896 | 0.94 | 0.884 | 1.1 | 0.856 | 0.731 | 0.321 | 0.48 | 0.632 | 0.616 | 0.624 |  | 0.261 |
| IA-LM | 1.15 | 0.758 | 1.03 | 0.876 | 0.892 | 0.921 | 0.977 | 0.906 | 0.982 | 0.913 | 0.941 | 0.855 | 0.91 | 0.801 | 0.755 | 1.21 | 0.933 | 1 | 0.946 | 0.769 |
| NCI-H2405 | 1.06 | 0.994 | 1.03 | 1.02 | 1.06 | 1.02 | 1.03 | 0.973 | 1.07 | 0.914 | 1.04 | 0.976 | 1 | 0.871 | 0.597 | 1.03 | 1.01 | 1 | 0.935 | 0.701 |
| A549 | 1.18 | 0.962 | 1.01 | 1.05 | 1.16 | 0.956 | 0.976 | 0.951 | 0.999 | 0.878 | 1.01 | 0.926 | 0.967 | 0.667 | 0.412 | 0.927 | 0.928 | 0.988 | 0.557 | 0.481 |
| LCLC-103H | 1.12 | 0.962 | 0.876 | 0.99 | 1.07 | 1.02 | 1.01 | 0.887 | 0.988 | 0.929 | 1.01 | 1.05 | 0.919 | 0.78 | 0.72 | 0.802 | 0.587 | 0.645 | 0.504 | 0.39 |
| NCI-H460 | 1.2 | 0.967 | 0.921 | 0.945 | 0.993 | 0.994 | 0.999 | 1.04 | 1.05 | 0.972 | 1.02 | 0.968 | 1.09 | 0.971 | 0.965 | 1.06 | 0.982 | 1.06 | 1.04 | 1.1 |
| NCI-H1755 | 1.08 | 0.922 | 1.04 | 1.01 | 1.12 | 0.966 | 0.958 | 1.03 | 0.988 | 0.997 | 1.1 | 1.01 | 0.984 | 0.889 | 0.638 | 0.951 | 0.884 | 0.926 | 0.727 | 0.568 |
| NCI-H358 | 1.06 | 0.892 | 0.917 | 0.965 | 0.949 | 0.873 | 0.881 | 0.973 | 0.923 | 0.88 | 1.03 | 0.903 | 0.686 | 0.382 | 0.262 | 0.623 | 0.641 | 0.448 | 0.239 | 0.215 |
| NCI-H1734 | 1.22 | 1 | 0.972 | 0.992 | 0.908 | 0.949 | 0.855 | 0.868 | 1.02 | 0.769 | 1.05 | 0.832 | 0.87 | 0.738 | 0.521 | 0.858 | 0.701 | 0.627 | 0.647 | 0.454 |
| EPLC-272H | 1.04 | 0.96 | 1 | 0.905 | 1.1 | 0.929 | 0.899 | 1.01 | 0.7 | 0.837 | 0.895 | 0.734 | 0.688 | 0.469 | 0.356 | 0.721 | 0.39 | 0.506 | 0.208 | 0.135 |
| NCI-H2126 | 1.07 | 0.974 | 0.976 | 0.995 | 1.11 | 1.02 | 1.02 | 0.973 | 1.03 | 0.967 | 1.04 | 0.949 | 0.951 | 0.855 | 0.72 | 1.16 | 1.2 | 1.17 | 1.11 | 0.668 |
